ChEMBL document CHEMBL1136208, “Bone-targeted Src kinase inhibitors: novel pyrrolo- and pyrazolopyrimidine analogues” (Bioorg Med Chem Lett, 2003)
pIC50: −log10 of the molar value.

biological target: Proto-oncogene tyrosine-protein kinase Src (Homo sapiens, UniProt P12931); test: In vitro inhibition of Src protein tyrosine kinase using the Scintillation proximity kinase assay.; set-up: species or system Oryctolagus cuniculus
Sequence (P12931 2-536 limits assumed): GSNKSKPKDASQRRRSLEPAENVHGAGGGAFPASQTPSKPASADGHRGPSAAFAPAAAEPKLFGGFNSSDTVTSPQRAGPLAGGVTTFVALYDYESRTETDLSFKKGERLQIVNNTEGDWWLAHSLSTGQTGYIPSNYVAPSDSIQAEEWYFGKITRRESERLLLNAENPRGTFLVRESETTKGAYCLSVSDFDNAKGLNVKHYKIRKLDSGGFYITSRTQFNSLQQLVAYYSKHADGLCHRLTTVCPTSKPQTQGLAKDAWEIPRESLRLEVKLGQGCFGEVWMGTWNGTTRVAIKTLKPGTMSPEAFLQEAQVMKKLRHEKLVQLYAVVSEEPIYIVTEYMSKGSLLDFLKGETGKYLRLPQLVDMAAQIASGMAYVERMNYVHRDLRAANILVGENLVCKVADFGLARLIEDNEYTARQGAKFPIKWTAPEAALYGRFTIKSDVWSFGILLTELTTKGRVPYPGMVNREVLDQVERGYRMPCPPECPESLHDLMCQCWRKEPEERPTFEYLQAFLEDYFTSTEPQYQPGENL

Row | pIC50 | SMILES
1 | 6.17 | Cc1ccc(-c2nn(CCCCOP(=O)(O)CP(=O)(O)O)c3ncnc(N)c23)cc1
2 | 4.40 | COc1cccc(-c2cn(-c3ccc(C(=O)Nc4ccc(C(P(=O)(O)O)P(=O)(O)O)cc4)cc3)c3ncnc(N)c23)c1
3 | 5.80 | COc1cccc(-c2nn(-c3cccc(P(=O)(O)CC(=O)O)c3)c3ncnc(N)c23)c1
4 | 7.40 | CN(CCO)CCc1ccc(-n2cc(-c3cccc(O)c3)c3c(N)ncnc32)cc1
5 | 5.40 | COc1cccc(-c2cn(-c3cccc(C(=O)O)c3)c3ncnc(N)c23)c1
6 | 7.70 | Nc1ncnc2c1c(-c1cccc(O)c1)nn2-c1cccc(P(=O)(O)CC(=O)O)c1
7 | 6.60 | COc1cccc(-c2cn(-c3ccc(C(=O)NCCCP(=O)(O)CP(=O)(O)O)cc3)c3ncnc(N)c23)c1
8 | 6.15 | COc1cccc(-c2cn(-c3ccc(CCOP(=O)(O)CP(=O)(O)O)cc3)c3ncnc(N)c23)c1
9 | 6.40 | Cc1ccc(-c2nn(-c3cccc(C(=O)NCCCP(=O)(O)CP(=O)(O)O)c3)c3ncnc(N)c23)cc1
10 | 6.44 | COc1cccc(-c2cn(-c3cccc(C(=O)NCCCP(=O)(O)CP(=O)(O)O)c3)c3ncnc(N)c23)c1
11 | 5.60 | COc1cccc(-c2cn(-c3cccc(C(=O)Nc4ccc(P(=O)(O)O)c(P(=O)(O)O)c4)c3)c3ncnc(N)c23)c1
12 | 4.72 | COc1cccc(-c2cn(-c3cccc(C(=O)Nc4ccc(C(P(=O)(O)O)P(=O)(O)O)cc4)c3)c3ncnc(N)c23)c1
13 | 5.82 | COc1cccc(-c2cn(-c3ccc(C(=O)O)cc3)c3ncnc(N)c23)c1
14 | 6.51 | COc1cccc(-c2cn(-c3ccc(CCN(C)CCOP(=O)(O)CP(=O)(O)O)cc3)c3ncnc(N)c23)c1
15 | 8.40 | CN(CCOP(=O)(O)CP(=O)(O)O)CCc1ccc(-n2cc(-c3cccc(O)c3)c3c(N)ncnc32)cc1
16 | 6.49 | Cc1ccc(-c2nn(-c3cccc(C(=O)NCc4ccc(P(=O)(O)O)c(P(=O)(O)O)c4)c3)c3ncnc(N)c23)cc1
17 | 7.22 | Nc1ncnc2c1c(-c1cccc(O)c1)cn2-c1ccc(CCOP(=O)(O)CP(=O)(O)O)cc1
18 | 6.80 | COc1cccc(-c2cn(-c3ccc(CCN(C)CCO)cc3)c3ncnc(N)c23)c1
19 | 6.06 | COc1cccc(-c2cn(-c3ccc(C(=O)Nc4ccc(P(=O)(O)O)c(P(=O)(O)O)c4)cc3)c3ncnc(N)c23)c1
20 | 7.40 | Nc1ncnc2c1c(-c1cccc(O)c1)cn2-c1ccc(CCO)cc1
